# Tests used:
# [1] = test system: L. donovani axenic amastigotes; assay: Resazurin reduction assay, L. donovani axenic amastigotes; assay type: cell-based; conditions: Leishmania donovani, read-out: percentage of inhibition, L. donovani axenic amastigotes
# [2] = test system: L. donovani promastigotes; assay: Resazurin reduction assay, L. donovani promastigotes; assay type: cell-based; conditions: Leishmania donovani, read-out: percentage of inhibition, L. donovani promastigotes
# HDAC3 = HDAC3 (Homo sapiens, UniProt O15379); assay: HDAC3 protease-coupled fluorescence (AMC) inhibition assay; assay type: biochemical; conditions: hr enzyme, 10-dose, 3-fold dilution from 50 μM (3: from 300 μM); read-out: IC50 against HDAC3
# Sequence of HDAC3 (O15379 whole entry): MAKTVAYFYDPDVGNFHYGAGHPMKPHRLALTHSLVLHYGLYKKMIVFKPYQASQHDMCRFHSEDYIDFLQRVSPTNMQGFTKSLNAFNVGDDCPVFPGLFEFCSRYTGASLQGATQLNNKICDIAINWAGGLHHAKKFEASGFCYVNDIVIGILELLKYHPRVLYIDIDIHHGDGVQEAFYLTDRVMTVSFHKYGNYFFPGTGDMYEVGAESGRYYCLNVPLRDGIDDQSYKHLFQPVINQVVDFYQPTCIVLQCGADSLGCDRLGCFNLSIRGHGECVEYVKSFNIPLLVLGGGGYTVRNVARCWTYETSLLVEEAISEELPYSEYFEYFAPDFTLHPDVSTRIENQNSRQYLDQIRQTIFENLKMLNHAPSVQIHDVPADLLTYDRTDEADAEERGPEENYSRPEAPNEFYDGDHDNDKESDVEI
# Sequence of HDAC3 (Q9Y618 395-489 partner limits assumed): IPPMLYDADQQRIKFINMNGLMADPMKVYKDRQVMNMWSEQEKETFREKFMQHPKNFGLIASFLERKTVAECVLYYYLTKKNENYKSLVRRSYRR
# Text: (§1) The new hydroxamates 2 and 6 were screened and profiled via a protease-coupled assay in which the quantification of HDAC enzyme activity is based on the formation of a free fluorescent group, the 7-amino-4-methyl coumarin (AMC).[42] […] After deacetylation by HDACs, the de(trifluoro)acetylated AMC–peptides were sensitive toward lysine peptidase and free fluorogenic AMC was generated and quantified.[42]
# (§2) To gain insights into its inhibition profile for human HDACs, we tested 3 against hrHDACs 1–6 and 8 following the above procedure (Table 1).
# (§3) Individual IC50 values for each HDAC isozyme were measured with the homogeneous fluorescence release HDAC assay.[42]
# [3] = test system: newly transformed schistosomula (NTS); assay: Phenotypic screening on newly transformed schistosomula (NTS); assay type: cell-based, Schistosoma mansoni
# HDAC1 = HDAC1 (Homo sapiens, UniProt Q13547); assay: HDAC1 protease-coupled fluorescence (AMC) inhibition assay; assay type: biochemical; conditions: hr enzyme, 10-dose, 3-fold dilution from 50 μM (3: from 300 μM); read-out: IC50 against HDAC1
# Sequence of HDAC1 (Q13547 whole entry): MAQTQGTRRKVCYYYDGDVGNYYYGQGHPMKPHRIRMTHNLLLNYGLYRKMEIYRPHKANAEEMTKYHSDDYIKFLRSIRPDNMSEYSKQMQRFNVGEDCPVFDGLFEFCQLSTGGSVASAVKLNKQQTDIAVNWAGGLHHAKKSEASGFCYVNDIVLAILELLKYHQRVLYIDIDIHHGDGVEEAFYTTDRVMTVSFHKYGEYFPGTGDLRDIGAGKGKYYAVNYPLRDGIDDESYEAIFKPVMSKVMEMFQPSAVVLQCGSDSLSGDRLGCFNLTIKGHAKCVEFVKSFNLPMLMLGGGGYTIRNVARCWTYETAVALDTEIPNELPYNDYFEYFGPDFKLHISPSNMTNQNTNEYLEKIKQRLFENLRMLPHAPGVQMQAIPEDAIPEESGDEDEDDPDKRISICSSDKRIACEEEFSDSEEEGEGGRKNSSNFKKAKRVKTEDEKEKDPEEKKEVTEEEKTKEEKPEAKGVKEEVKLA
# Text: as §1, §2, §3
# HDAC4 = HDAC4 (Homo sapiens, UniProt P56524); assay: HDAC4 protease-coupled fluorescence (AMC) inhibition assay; assay type: biochemical; conditions: hr enzyme, class IIa substrate Boc-Lys(trifluoroacetyl)-AMC; read-out: IC50 against HDAC4
# Sequence of HDAC4 (P56524 whole entry): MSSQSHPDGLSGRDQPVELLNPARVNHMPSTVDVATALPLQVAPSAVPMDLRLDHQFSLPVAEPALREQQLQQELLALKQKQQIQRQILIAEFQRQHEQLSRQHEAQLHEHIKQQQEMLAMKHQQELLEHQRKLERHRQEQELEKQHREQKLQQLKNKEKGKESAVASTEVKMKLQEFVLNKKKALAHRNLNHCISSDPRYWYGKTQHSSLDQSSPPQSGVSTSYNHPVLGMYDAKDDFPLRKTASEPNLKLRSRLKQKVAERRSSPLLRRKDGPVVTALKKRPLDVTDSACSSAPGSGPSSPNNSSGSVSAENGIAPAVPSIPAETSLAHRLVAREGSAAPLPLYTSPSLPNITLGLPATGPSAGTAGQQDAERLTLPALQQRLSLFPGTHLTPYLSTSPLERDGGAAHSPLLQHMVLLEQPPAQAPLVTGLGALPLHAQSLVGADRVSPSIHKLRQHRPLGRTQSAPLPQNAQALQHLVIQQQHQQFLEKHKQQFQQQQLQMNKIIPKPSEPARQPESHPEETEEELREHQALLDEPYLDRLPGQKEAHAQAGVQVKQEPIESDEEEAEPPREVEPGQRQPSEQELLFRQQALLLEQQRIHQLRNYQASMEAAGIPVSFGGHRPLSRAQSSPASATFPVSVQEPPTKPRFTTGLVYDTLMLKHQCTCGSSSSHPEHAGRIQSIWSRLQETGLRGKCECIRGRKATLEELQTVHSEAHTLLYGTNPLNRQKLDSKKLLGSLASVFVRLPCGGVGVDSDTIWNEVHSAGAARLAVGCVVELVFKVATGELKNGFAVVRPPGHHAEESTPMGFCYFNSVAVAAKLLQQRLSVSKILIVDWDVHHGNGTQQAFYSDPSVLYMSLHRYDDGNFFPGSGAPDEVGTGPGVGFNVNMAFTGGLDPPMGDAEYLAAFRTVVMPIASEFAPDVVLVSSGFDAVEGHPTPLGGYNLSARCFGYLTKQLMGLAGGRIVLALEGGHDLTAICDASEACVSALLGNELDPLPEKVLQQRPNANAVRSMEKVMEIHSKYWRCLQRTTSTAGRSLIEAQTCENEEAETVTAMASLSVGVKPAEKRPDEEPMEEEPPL
# Text: as §1, §2, §3
# HDAC2 = HDAC2 (Homo sapiens, UniProt Q92769); assay: HDAC2 protease-coupled fluorescence (AMC) inhibition assay; assay type: biochemical; conditions: hr enzyme, 10-dose, 3-fold dilution from 50 μM (3: from 300 μM); read-out: IC50 against HDAC2
# Sequence of HDAC2 (Q92769 whole entry): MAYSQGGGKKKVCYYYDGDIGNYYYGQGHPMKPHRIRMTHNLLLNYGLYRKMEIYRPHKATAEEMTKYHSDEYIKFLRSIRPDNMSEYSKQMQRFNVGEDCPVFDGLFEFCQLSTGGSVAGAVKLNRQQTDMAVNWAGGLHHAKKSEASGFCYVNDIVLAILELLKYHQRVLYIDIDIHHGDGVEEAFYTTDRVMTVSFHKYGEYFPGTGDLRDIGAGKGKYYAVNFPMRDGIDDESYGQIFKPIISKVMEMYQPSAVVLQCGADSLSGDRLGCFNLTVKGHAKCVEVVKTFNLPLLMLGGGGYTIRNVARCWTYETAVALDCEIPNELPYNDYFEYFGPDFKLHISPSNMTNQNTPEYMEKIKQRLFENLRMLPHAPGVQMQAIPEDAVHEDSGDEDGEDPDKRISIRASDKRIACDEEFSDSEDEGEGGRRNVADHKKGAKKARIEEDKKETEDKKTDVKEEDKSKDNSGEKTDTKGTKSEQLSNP
# Text: as §1, §2, §3
# HDAC6 = molecular target: T1, HDAC6 (Homo sapiens, UniProt Q9UBN7); assay: HDAC6 protease-coupled fluorescence (AMC) inhibition assay; assay type: biochemical; conditions: hr enzyme, 10-dose, 3-fold dilution from 50 μM (3: from 300 μM); read-out: IC50 against HDAC6
# T1 sequence (Q9UBN7 1-1215): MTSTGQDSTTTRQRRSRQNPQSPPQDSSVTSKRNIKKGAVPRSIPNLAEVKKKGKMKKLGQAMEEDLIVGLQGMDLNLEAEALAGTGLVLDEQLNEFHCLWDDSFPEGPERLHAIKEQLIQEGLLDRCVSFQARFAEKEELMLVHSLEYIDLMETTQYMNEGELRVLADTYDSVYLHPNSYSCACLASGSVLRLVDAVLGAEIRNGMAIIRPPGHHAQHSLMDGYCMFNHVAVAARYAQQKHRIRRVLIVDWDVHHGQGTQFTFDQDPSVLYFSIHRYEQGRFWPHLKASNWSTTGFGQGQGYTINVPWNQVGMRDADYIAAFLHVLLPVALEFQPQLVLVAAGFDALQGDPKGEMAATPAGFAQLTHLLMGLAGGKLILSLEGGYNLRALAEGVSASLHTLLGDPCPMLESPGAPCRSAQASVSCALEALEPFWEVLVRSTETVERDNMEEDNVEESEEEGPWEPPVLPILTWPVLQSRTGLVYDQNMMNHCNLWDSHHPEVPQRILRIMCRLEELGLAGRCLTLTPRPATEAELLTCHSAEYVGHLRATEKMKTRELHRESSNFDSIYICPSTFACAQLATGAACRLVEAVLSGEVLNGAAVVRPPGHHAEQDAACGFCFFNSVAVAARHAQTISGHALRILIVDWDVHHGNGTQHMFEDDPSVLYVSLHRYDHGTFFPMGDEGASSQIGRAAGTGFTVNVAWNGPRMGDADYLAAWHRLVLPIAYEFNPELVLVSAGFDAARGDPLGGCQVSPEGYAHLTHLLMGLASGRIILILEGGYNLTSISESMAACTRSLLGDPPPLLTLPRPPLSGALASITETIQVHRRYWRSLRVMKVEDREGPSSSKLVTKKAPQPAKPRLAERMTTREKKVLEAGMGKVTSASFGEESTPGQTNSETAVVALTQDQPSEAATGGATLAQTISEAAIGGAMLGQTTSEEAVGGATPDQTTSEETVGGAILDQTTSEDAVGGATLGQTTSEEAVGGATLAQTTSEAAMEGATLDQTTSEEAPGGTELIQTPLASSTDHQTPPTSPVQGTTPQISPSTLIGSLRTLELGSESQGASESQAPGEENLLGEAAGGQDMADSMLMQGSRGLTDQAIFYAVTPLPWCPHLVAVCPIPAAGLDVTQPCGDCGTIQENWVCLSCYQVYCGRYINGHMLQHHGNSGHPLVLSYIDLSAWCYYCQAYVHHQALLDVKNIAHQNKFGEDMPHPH
# Text: as §1, §2, §3
# [4] = test system: L. amazonensis promastigotes; assay: Resazurin reduction assay, L. amazonensis promastigotes; assay type: cell-based; conditions: Leishmania amazonensis; 20 μM; read-out: percentage of inhibition, L. amazonensis promastigotes
# in vitro = conditions: mouse, noninfected L929 fibroblast cells
# HDAC8 = molecular target: T2, HDAC8 (Homo sapiens, UniProt Q9BY41); assay: HDAC8 protease-coupled fluorescence (AMC) inhibition assay; assay type: biochemical; conditions: hr enzyme, substrate RHK(Ac)K(Ac)AMC; read-out: IC50 against HDAC8
# T2 sequence (Q9BY41 1-377): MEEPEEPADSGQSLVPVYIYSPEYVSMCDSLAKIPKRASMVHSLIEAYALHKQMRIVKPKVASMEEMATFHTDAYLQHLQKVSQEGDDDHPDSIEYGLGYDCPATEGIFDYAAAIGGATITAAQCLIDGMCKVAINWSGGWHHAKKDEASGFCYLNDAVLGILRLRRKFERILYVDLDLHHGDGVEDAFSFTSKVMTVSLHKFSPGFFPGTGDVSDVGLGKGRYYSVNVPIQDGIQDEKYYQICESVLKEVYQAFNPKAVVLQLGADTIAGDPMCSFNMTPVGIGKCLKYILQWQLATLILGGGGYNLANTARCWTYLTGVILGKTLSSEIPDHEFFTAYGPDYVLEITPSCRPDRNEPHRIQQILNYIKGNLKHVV
# Text: as §1, §2, §3
# HDAC5 = HDAC5 (Homo sapiens, UniProt Q9UQL6); assay: HDAC5 protease-coupled fluorescence (AMC) inhibition assay; assay type: biochemical; conditions: hr enzyme, class IIa substrate Boc-Lys(trifluoroacetyl)-AMC; read-out: IC50 against HDAC5
# Sequence of HDAC5 (Q9UQL6 whole entry): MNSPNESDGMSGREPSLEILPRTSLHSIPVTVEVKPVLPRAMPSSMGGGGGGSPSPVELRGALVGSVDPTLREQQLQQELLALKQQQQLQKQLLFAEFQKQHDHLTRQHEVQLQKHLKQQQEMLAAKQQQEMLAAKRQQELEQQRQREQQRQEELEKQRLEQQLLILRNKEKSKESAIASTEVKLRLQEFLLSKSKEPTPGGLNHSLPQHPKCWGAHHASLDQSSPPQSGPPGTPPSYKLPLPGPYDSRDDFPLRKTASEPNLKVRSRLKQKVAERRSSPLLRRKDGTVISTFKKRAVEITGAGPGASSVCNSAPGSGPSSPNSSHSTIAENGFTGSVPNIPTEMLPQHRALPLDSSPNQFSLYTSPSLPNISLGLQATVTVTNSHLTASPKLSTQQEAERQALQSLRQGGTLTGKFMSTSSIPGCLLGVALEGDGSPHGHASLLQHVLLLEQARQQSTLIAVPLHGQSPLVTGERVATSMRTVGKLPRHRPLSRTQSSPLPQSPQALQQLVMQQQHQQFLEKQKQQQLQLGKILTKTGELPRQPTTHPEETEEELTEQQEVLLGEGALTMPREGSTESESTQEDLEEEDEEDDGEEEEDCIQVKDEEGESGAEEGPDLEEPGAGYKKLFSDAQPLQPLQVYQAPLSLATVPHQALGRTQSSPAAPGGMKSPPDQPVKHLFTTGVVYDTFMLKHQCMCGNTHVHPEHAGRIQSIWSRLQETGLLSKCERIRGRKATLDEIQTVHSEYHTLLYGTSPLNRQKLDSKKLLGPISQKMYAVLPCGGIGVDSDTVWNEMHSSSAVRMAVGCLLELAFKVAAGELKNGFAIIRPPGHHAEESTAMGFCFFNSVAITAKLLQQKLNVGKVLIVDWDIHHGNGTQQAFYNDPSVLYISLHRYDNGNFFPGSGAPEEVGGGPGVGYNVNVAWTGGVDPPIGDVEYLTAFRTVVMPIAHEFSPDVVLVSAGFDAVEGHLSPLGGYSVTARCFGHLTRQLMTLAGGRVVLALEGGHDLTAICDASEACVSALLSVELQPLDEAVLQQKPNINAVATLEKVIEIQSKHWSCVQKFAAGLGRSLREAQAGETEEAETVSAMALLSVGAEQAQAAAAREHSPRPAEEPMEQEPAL
# Text: as §1, §2, §3
# [5] = test system: T. cruzi amastigotes and trypomastigotes; assay: T. cruzi infection assay in L929 cells (beta-galactosidase Tulahuen strain); assay type: cell-based, Trypanosoma cruzi
smiles,measurement,setting,value
Cn1c(/C=C/C(=O)NO)ccc1/C=C/C(=O)c1cccc(Cl)c1 [Compound 3],inhibition at 0.8 µM,[1]; 0.8 μM,4.9 ± 4.9%
same,inhibition at 4 µM,[1]; 4 μM,50.8 ± 2.4%
same,inhibition at 20 µM,[1]; 20 μM,74.9 ± 1.3%
same,inhibition at 0.8 µM,[2]; 0.8 μM,3.8 ± 3.4%
same,inhibition at 4 µM,[2]; 4 μM,1.7 ± 1.5%
same,inhibition at 20 µM,[2]; 20 μM,6.8 ± 1.8%
same,IC50,HDAC3,> 300 µM
same,"percentage of NTS activity, 72 h",[3]; 10 μM,22.3 ± 2.0%
same,"percentage of NTS activity, 72 h",[3]; 20 μM,23.5 ± 0.9%
same,IC50,"[3]; Schistosoma mansoni, 72 h, read-out: IC50, viability of NTS",> 20 µM
same,IC50,HDAC1,> 300 µM
same,IC50,HDAC4,132 µM
same,IC50,HDAC2,257 µM
same,IC50,HDAC6,6.1 µM
same,inhibition at 20 µM,[4],9.1 ± 6.3%
same,CC50 at 96 h,in vitro,40 µM
same,IC50,HDAC8,2 µM
same,IC50,HDAC5,131 µM
same,percentage of T. cruzi growth inhibition,"[5]; 80 μM, infected L929 cells, 96 h, toxic = L929 death",toxic
same,percentage of T. cruzi growth inhibition,"[5]; 160 μM, infected L929 cells, 96 h, toxic = L929 death",toxic
same,"selectivity index (SI), CC50/EC50",[5]; L929 CC50 / T. cruzi EC50,5.7
same,EC50,"[5]; Trypanosoma cruzi, L929, 96 h, infected L929 cells, 96 h, mean ± SD, read-out: EC50, growth of T. cruzi amastigotes and trypomastigotes",7 ± 0.2 µM
same,inhibition at 1.25 µM,"[5]; Trypanosoma cruzi, 1.25 μM, infected L929 cells, 96 h, read-out: percentage of T. cruzi growth inhibition",0%
same,inhibition at 2.5 µM,"[5]; Trypanosoma cruzi, 2.5 μM, infected L929 cells, 96 h, toxic = L929 death, read-out: percentage of T. cruzi growth inhibition",2%
same,inhibition at 5 µM,"[5]; Trypanosoma cruzi, 5 μM, infected L929 cells, 96 h, toxic = L929 death, read-out: percentage of T. cruzi growth inhibition",39%
same,inhibition at 10 µM,"[5]; Trypanosoma cruzi, 10 μM, infected L929 cells, 96 h, toxic = L929 death, read-out: percentage of T. cruzi growth inhibition",67%
same,inhibition at 20 µM,"[5]; Trypanosoma cruzi, 20 μM, infected L929 cells, 96 h, toxic = L929 death, read-out: percentage of T. cruzi growth inhibition",87%
same,inhibition at 40 µM,"[5]; Trypanosoma cruzi, 40 μM, infected L929 cells, 96 h, toxic = L929 death, read-out: percentage of T. cruzi growth inhibition",90%

# From paper PMC9274761, “Effects of Structurally Different HDAC Inhibitors against Trypanosoma cruzi, Leishmania, and Schistosoma mansoni” (ACS Infectious Diseases, 2022)
